# From article PMC7462607 (eLife, 2020)
# “And” between values parts separate entries of the source, which are not always exact repeats. Equal values may be shown once. Read-outs that look alike come from different tables or passages of the source.
# Key:
# HCT-116 cells = experiment: Cell viability assay, parental HCT-116 and HQ461-resistant HCT-116 clones; format: cell-based, Homo sapiens; settings: for CellTiter-Glo (ATP): raw signal, listed as 0461; for IC50: Homo sapiens, HCT-116
# Experimental: Seven hundred A549 cells or 1,000 HCT-116 cells in 50 µL of medium were plated per well in 384-well flat clear bottom white polystyrene TC-treated microplates (Corning, Corning, USA). After overnight attachment, cells were dosed with a serial dilution of HQ461 with a D300e digital dispenser (Tecan, Männedorf, Switzerland). Cell survival was measured 72 hr later using CellTiter-Glo luminescent cell viability assay kit (Promega, Madison, USA) following vendor instructions. Luminescence was recorded by EnVison multimode plate reader (PerkinElmer, Waltham, USA). IC50 was determined with GraphPad Prism using baseline correction (by normalizing to DMSO control), the asymmetric (five parameter) equation, and least squares fit.
# Parental HCT-116 were plated sparsely on 10 cm plates to allow the isolation of ten individual clones. Each of these ten clones were expanded to one confluent 15 cm plate to establish ten independent cell populations. One million cells from each population were then plated on one 10 cm plate and treated with 20 µM HQ461 continuously for two weeks, with media change every 3 to 4 days. HQ461 resistant clones emerged from 5 out of the 10 populations. These clones were isolated, expanded, and tested for their sensitivity to HQ461 using cell viability assay. Five HQ461-resistant clones selected from independent populations were subjected to genomic DNA isolation as described in the previous session. Their genomic DNAs were then pooled in equal amounts for whole-exome sequencing at 200x average coverage (Novogene, Beijing, China). As a control, genomic DNAs isolated from the corresponding cell populations before HQ461 selection were also pooled for whole-exome sequencing. Raw sequencing data have been deposited to NCBI GEO (GSE153707).
# [1] = biological target: T1, FLAG-Avi-DDB1 and His-CDK12KD G731E/His-CCNKΔC (Homo sapiens, UniProt Q9NYV4, G731E); experiment: AlphaScreen assay, G731E; format: binding; settings: for AlphaScreen: G731E, raw signal
# T1 construct: Human CDK12KD (residues 715–1052); made in house; host or cells: Sf9 or High Five (CDK12KD/CCNKΔC, co-infected with yeast CAK1); 293F with BirA (FLAG-Avi-DDB1)
# T1 sequence (Q9NYV4 715-1052 G731E limits assumed): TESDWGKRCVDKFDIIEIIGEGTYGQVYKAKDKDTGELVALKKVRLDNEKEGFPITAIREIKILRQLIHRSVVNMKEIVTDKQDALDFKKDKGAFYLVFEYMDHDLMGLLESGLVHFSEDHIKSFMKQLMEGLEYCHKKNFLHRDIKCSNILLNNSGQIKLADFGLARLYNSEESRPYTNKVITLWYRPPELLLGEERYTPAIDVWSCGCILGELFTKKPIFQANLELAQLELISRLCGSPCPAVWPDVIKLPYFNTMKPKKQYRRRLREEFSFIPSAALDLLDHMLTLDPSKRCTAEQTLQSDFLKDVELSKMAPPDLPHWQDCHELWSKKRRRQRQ
# T1 sequence (O75909 11-267 partner limits assumed): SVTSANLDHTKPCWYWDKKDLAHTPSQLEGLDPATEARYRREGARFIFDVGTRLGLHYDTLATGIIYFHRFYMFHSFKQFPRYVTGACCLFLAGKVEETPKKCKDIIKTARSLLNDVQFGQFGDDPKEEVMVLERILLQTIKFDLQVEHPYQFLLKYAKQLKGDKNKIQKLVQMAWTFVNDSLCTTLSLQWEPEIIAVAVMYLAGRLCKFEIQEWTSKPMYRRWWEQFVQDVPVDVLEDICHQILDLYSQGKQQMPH
# Experimental: Biotinylated FLAG-Avi-DDB1 (3 µM) and 6xHis-CDK12KD/6xHis-CCNKΔC (WT or G731E/R mutants) (3 µM) were mixed in an assay buffer (50 mM HEPES, pH7.5, 300 mM NaCl, 0.5 mM TCEP, 0.1% NP-40, 0.1% BSA) and a serial dilution of HQ461.The protein-compound mix was transferred to 384-well plates (Corning, Corning, USA); 15 μL per well. After a 1 hr room temperature incubation, 10 µL of nickel chelate (Ni-NTA) acceptor beads (PerkinElmer, Waltham, USA, Waltham, USA, 6760619C) (1:100 diluted with assay buffer) was added per well. After incubation in the dark for 1 hr at room temperature, 10 μL of streptavidin donor beads (PerkinElmer, Waltham, USA, 6760619C) (1:100 diluted in assay buffer) was added per well. After another 1 hr incubation, AlphaScreen signal was measured on the EnVision multimode plate reader (PerkinElmer, Waltham, USA). For THZ531 competition, FLAG-Avi-DDB1, 6xHis-CDK12KD/6xHis-CCNKΔC mix was preincubated with 5 μM of THZ531 for 30 min on ice followed by the procedures described above.
# [2] = tested on: BRCA1, BRCA2, ATR, ERCC4 mRNA; experiment: RT-qPCR of BRCA1, BRCA2, ATR and ERCC4 mRNAs; format: cell-based, Homo sapiens
# Experimental: Total RNA was extracted from HQ461-treated A549 cells using TRNzol (Tiangen, Beijing, China). Reverse transcription of mRNA into cDNA was performed using the 5X All-In-One RT mastermix kit with AccuRT genomic DNA removal kit (Abm, Richmond, Canada), and qPCR was performed using TB Green Premix Ex Taq (Tli RNaseH Plus) (Takara, Otsu, Japan) with the CFX96 Real-Time PCR Detection System (Bio-Rad, Hercules, USA). GAPDH was used for normalization. Primer sequences are as follows: GAPDH-forward: 5’-[…]-3’; GAPDH-reverse: 5’-[…]-3’; BRCA1-forward: 5’-[…]-3’; BRCA1-reverse: 5’-[…]-3’; BRCA2-forward: 5’-[…]-3’; BRCA2-reverse: 5’-[…]-3’; ATR-forward: 5’-[…]-3’; ATR-reverse: 5’-[…]-3’; ERCC4-forward: 5’-[…]-3’; ERCC4- reverse: 5’-[…]-3’. Each experiment was performed with three technical replicates.
smiles,measurement,setting,value
"Cc1cccc(Nc2nc(CC(=O)Nc3ncc(C)s3)cs2)n1 [HQ461, 2-(2-((6-methylpyridin-2-yl)amino)thiazol-4-yl)-N-(5-methylthiazol-2-yl)acetamide]",CellTiter-Glo (ATP),"HCT-116 cells; HCT-116 Parental, 1.43856e-6 M",1.76E+06 and 1.77E+06 and 2.14E+06 and 2.07E+06
same,CellTiter-Glo (ATP),"HCT-116 cells; HCT-116 Parental, 1.85257e-5 M",147560 and 197570
same,CellTiter-Glo (ATP),"HCT-116 cells; HCT-116 Parental, 1.91632e-5 M",303300 and 182560
same,CellTiter-Glo (ATP),"HCT-116 cells; HCT-116 Parental, 3.09439e-5 M",96830 and 121990
same,CellTiter-Glo (ATP),"HCT-116 cells; HCT-116 Parental, 3.21364e-5 M",122490 and 116460
same,CellTiter-Glo (ATP),"HCT-116 cells; HCT-116 Parental, 5.00E-07 M",1.93E+06 and 2.16E+06
same,CellTiter-Glo (ATP),"HCT-116 cells; HCT-116 Parental, 5.19E-07 M",1.68E+06 and 1.79E+06
same,CellTiter-Glo (ATP),"HCT-116 cells; HCT-116 Parental, 7.99E-07 M",2.18E+06 and 1.85E+06
same,CellTiter-Glo (ATP),"HCT-116 cells; HCT-116 Parental, 8.79E-07 M",1.85E+06 and 1.84E+06
same,CellTiter-Glo (ATP),"HCT-116 cells; HCT-116 resistant clone 2R, 1.27872e-6 M",1.68E+06 and 1.80E+06
same,CellTiter-Glo (ATP),"HCT-116 cells; HCT-116 resistant clone 2R, 1.35864e-6 M",1.87E+06 and 1.72E+06
same,CellTiter-Glo (ATP),"HCT-116 cells; HCT-116 resistant clone 2R, 1.71705e-5 M",742920 and 664400
same,CellTiter-Glo (ATP),"HCT-116 cells; HCT-116 resistant clone 2R, 1.78082e-5 M",650900 and 675880
same,CellTiter-Glo (ATP),"HCT-116 cells; HCT-116 resistant clone 2R, 2.87969e-5 M",418620 and 384180
same,CellTiter-Glo (ATP),"HCT-116 cells; HCT-116 resistant clone 2R, 2.98307e-5 M",380430 and 316510
same,CellTiter-Glo (ATP),"HCT-116 cells; HCT-116 resistant clone 2R, 7.99E-07 M",1.71E+06 and 1.76E+06 and 1.66E+06 and 1.65E+06
same,CellTiter-Glo (ATP),"HCT-116 cells; HCT-116 resistant clone 5R, 1.1988e-6 M",1.40E+06 and 1.72E+06
same,CellTiter-Glo (ATP),"HCT-116 cells; HCT-116 resistant clone 5R, 1.27872e-6 M",1.47E+06 and 1.50E+06
same,CellTiter-Glo (ATP),"HCT-116 cells; HCT-116 resistant clone 5R, 1.59745e-5 M",708690 and 643890
same,CellTiter-Glo (ATP),"HCT-116 cells; HCT-116 resistant clone 5R, 1.65326e-5 M",713930 and 686510
same,CellTiter-Glo (ATP),"HCT-116 cells; HCT-116 resistant clone 5R, 2.67284e-5 M",402240 and 357240
same,CellTiter-Glo (ATP),"HCT-116 cells; HCT-116 resistant clone 5R, 2.77628e-5 M",421400 and 366190
same,CellTiter-Glo (ATP),"HCT-116 cells; HCT-116 resistant clone 5R, 7.19E-07 M",1.56E+06 and 1.54E+06 and 1.42E+06 and 1.57E+06
same,CellTiter-Glo (ATP),"HCT-116 cells; HCT-116 resistant clone 6R, 1.11888e-6 M",1.62E+06 and 1.45E+06
same,CellTiter-Glo (ATP),"HCT-116 cells; HCT-116 resistant clone 6R, 1.1988e-6 M",1.35E+06 and 1.55E+06
same,CellTiter-Glo (ATP),"HCT-116 cells; HCT-116 resistant clone 6R, 1.48579e-5 M",838610 and 815000
same,CellTiter-Glo (ATP),"HCT-116 cells; HCT-116 resistant clone 6R, 1.54163e-5 M",808740 and 730030
same,CellTiter-Glo (ATP),"HCT-116 cells; HCT-116 resistant clone 6R, 2.48182e-5 M",327830 and 270480
same,CellTiter-Glo (ATP),"HCT-116 cells; HCT-116 resistant clone 6R, 2.57734e-5 M",314810 and 296570
same,CellTiter-Glo (ATP),"HCT-116 cells; HCT-116 resistant clone 6R, 6.71E-07 M",1.36E+06 and 1.56E+06
same,CellTiter-Glo (ATP),"HCT-116 cells; HCT-116 resistant clone 6R, 6.95E-07 M",1.61E+06 and 1.53E+06
same,CellTiter-Glo (ATP),"HCT-116 cells; HCT-116 resistant clone 8R, 1.03896e-6 M",1.50E+06 and 1.58E+06
same,CellTiter-Glo (ATP),"HCT-116 cells; HCT-116 resistant clone 8R, 1.11888e-6 M",1.51E+06 and 1.63E+06
same,CellTiter-Glo (ATP),"HCT-116 cells; HCT-116 resistant clone 8R, 1.42995e-5 M",543300 and 1.00E+06
same,CellTiter-Glo (ATP),"HCT-116 cells; HCT-116 resistant clone 8R, 2.30667e-5 M",427880 and 390970
same,CellTiter-Glo (ATP),"HCT-116 cells; HCT-116 resistant clone 8R, 2.39426e-5 M",409850 and 403510
same,CellTiter-Glo (ATP),"HCT-116 cells; HCT-116 resistant clone 8R, 4.00787e-5 M",298050 and 276140
same,CellTiter-Glo (ATP),"HCT-116 cells; HCT-116 resistant clone 8R, 6.23E-07 M",1.45E+06 and 1.63E+06
same,CellTiter-Glo (ATP),"HCT-116 cells; HCT-116 resistant clone 8R, 6.47E-07 M",1.55E+06 and 1.60E+06
same,CellTiter-Glo (ATP),"HCT-116 cells; HCT-116 resistant clone 9R, 1.03896e-6 M",288440 and 333120
same,CellTiter-Glo (ATP),"HCT-116 cells; HCT-116 resistant clone 9R, 2.13941e-5 M",65580 and 36800
same,CellTiter-Glo (ATP),"HCT-116 cells; HCT-116 resistant clone 9R, 2.22704e-5 M",50040 and 30190
same,CellTiter-Glo (ATP),"HCT-116 cells; HCT-116 resistant clone 9R, 3.58708e-5 M",46680 and 23830
same,CellTiter-Glo (ATP),"HCT-116 cells; HCT-116 resistant clone 9R, 3.72209e-5 M",43970 and 22740
same,CellTiter-Glo (ATP),"HCT-116 cells; HCT-116 resistant clone 9R, 5.79E-07 M",315200 and 382800
same,CellTiter-Glo (ATP),"HCT-116 cells; HCT-116 resistant clone 9R, 5.99E-07 M",335950 and 324000
same,CellTiter-Glo (ATP),"HCT-116 cells; HCT-116 resistant clone 9R, 9.59E-07 M",277130 and 355980
same,increase of IC50 relative to parental HCT-116 cells,HCT-116 cells; HQ461-resistant HCT-116 clones,three-fold
same,IC50,"HCT-116 cells; five HQ461-resistant clones, read-out: IC50 on the viability of five HQ461-resistant HCT-116 clones",13 to 14.3 µM
same,IC50,HCT-116 cells; read-out: IC50 on the viability of parental HCT-116,4.6 µM
same,AlphaScreen,[1]; HQ461 2.22e-6 M,1248 and 1240 and 1185
same,AlphaScreen,[1]; HQ461 6.67e-6 M,1251 and 1198 and 1100
same,AlphaScreen,[1]; HQ461 2e-5 M,1233 and 1200 and 1143
same,AlphaScreen,[1]; HQ461 2.47E-07 M,1234 and 1107 and 1145
same,AlphaScreen,[1]; HQ461 2.74E-08 M,1248 and 1124 and 1169
same,AlphaScreen,[1]; HQ461 7.41E-07 M,1137 and 1171 and 1109
same,AlphaScreen,[1]; HQ461 8.23E-08 M,1304 and 1157 and 1110
same,"complex formation with DDB1, G731E mutant",[1]; even with 20 µM of HQ461,did not form a complex with DDB1
same,inhibitory effect on the expression of DDR genes,[2]; A549 with CDK12 G731E or G731R mutation,abolished
same,"mRNA levels of BRCA1, BRCA2, ATR and ERCC4","[2]; parental A549, 10 µM HQ461 for 16 hr",reductions in the mRNA levels of all four tested DDR genes
